Legend:
Type in all cases: in vitro ADME
[1] = Stability in plasma, mouse; conditions: mice plasma
Protocol: The unbound fractions of IDP-73152 in various matrices were measured according to the manufacturer's instructions for the rapid equilibrium dialysis (RED) device (ThermoFisher Scientific, Waltham, MA, USA). Briefly, IDP-73152 was added to the plasma or the microsomal/hepatocyte incubation buffer from various species (i.e., mouse, rat, dog, and human for microsomal incubation; rat for hepatocyte incubation) to obtain final concentrations of the compound at 0.3, 1, and 3 μM. After the membrane insert was placed in the RED plate, the solution containing IDP-73152 was added (400 μL) to the sample chamber, and the dialysis buffer (600 μL) was added to the buffer chamber. The RED plate was sealed with parafilm and then incubated at 37 °C in the orbital shaker (Lab Companion, Daejeon, Korea) at 100 rpm for 5 h. […] The IDP-73152 concentration in the buffer/sample chambers (i.e., CBuffer Chamber and CSample Chamber) was determined by an assay. Thus, the fraction unbound was defined as:(2) % Fraction unbound=(CBuffer Chamber/CSample Chamber)×100% When necessary, the stability of IDP-73152 in the matrix was also determined at 5 h. […] Accordingly, the kinetics of IDP-73152 instability were determined in the rat blood at a final concentration of 0.3 μM. […]

[2] = Unbound fraction in plasma (rapid equilibrium dialysis), mouse; conditions: mice plasma, 0.3, 1, 3 μM, RED 5 h, read-out: fu,p
Protocol: The unbound fractions of IDP-73152 in various matrices were measured according to the manufacturer’s instructions for the rapid equilibrium dialysis (RED) device (ThermoFisher Scientific, Waltham, MA, USA). Briefly, IDP-73152 was added to the plasma or the microsomal/hepatocyte incubation buffer from various species (i.e., mouse, rat, dog, and human for microsomal incubation; rat for hepatocyte incubation) to obtain final concentrations of the compound at 0.3, 1, and 3 μM. After the membrane insert was placed in the RED plate, the solution containing IDP-73152 was added (400 µL) to the sample chamber, and the dialysis buffer (600 μL) was added to the buffer chamber. The RED plate was sealed with parafilm and then incubated at 37 °C in the orbital shaker (Lab Companion, Daejeon, Korea) at 100 rpm for 5 h. After a 50 μL aliquot was aspirated from both the sample and buffer chambers, an equal volume of protein-free buffer or blank medium was replaced in the aspirated sample or buffer to render the matrices compositionally identical. The IDP-73152 concentration in the buffer/sample chambers (i.e., CBuffer Chamber and CSample Chamber) was determined by an assay. Thus, the fraction unbound was defined as:(2) % Fraction unbound=(CBuffer Chamber/CSample Chamber)×100%

[3] = Blood partitioning (LC-MS/MS-based depletion method), dog; conditions: whole blood, dogs blood, 0.3, 1, 3 μM, read-out: BP (blood-to-plasma concentration ratio)
Protocol: In this study, the partitioning of IDP-73152 in blood samples obtained from mice, rats, dogs, and humans was determined using the LC-MS/MS-based depletion method with slight modifications. DP-73152 was added to an aliquot (1 mL) of blank blood or plasma at a final concentration of 0.3, 1, or 3 μM. The mixture was incubated at 37 °C in a water bath for 60 min. After the incubation, the plasma was separated by centrifugation of the blood samples for 5 min at 10,000× g/4 °C and stored at -80 °C until analysis. The blood-to-plasma concentration ratio (BP) was calculated using the equation:(3) BP=[…], where […] is the concentration of the compound at the corresponding blood concentration in the plasma, and CPL is the concentration from the plasma sample separated from the incubated blood.

## CC(C)(C)[C@H](NC(=O)[C@H](CC1CCCC1)CN(O)C=O)C(=O)N1CCC(NCc2cc(F)c(F)cc2F)CC1 [IDP-73152]
[1]; 5 h, 37 °C
  percentage remaining in plasma at 5 h: 92.3 ± 2.7%
[1]; preliminary study
  stability in plasma: stable
[2]
  fraction unbound at 5 h: 0.0562 ± 0.0087
[3]
  blood plasma ratio at 60 min: 1.45 ± 0.11
